Results reported in PubChem BioAssay (NCI).
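Grown in 96-well plates, cells were treated for 48 hours with each compound at five concentrations. Insufficient inhibition: endpoint recorded as highest concentration tested. TGI: concentration producing complete growth inhibition.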

Experiments:
Test in all cases: growth of human tumour cells (NCI), 48 h
HOP-62 NSCLC = tested on: HOP-62 NSCLC
OVCAR-3 ovarian = tested on: OVCAR-3 ovarian
SK-MEL-5 melanoma = tested on: SK-MEL-5 melanoma
MOLT-4 leukemia = tested on: MOLT-4 leukemia
KM12 colon = tested on: KM12 colon
SK-OV-3 ovarian = tested on: SK-OV-3 ovarian
NCI-H460 lung = tested on: NCI-H460 lung
MCF7 breast = tested on: MCF7 breast
IGROV1 ovarian = tested on: IGROV1 ovarian
SF-539 CNS = tested on: SF-539 CNS
M14 melanoma = tested on: M14 melanoma
MALME-3M melanoma = tested on: MALME-3M melanoma
T-47D breast = tested on: T-47D breast
UACC-257 melanoma = tested on: UACC-257 melanoma
HCC-2998 colon = tested on: HCC-2998 colon
MDA-MB-435 = tested on: MDA-MB-435
SF-268 CNS = tested on: SF-268 CNS
HL-60(TB) leukemia = tested on: HL-60(TB) leukemia
NCI-H23 lung = tested on: NCI-H23 lung
SK-MEL-28 melanoma = tested on: SK-MEL-28 melanoma
RXF 393 renal = tested on: RXF 393 renal
MDA-MB-231 breast = tested on: MDA-MB-231 breast
A549 NSCLC = tested on: A549 NSCLC
UACC-62 melanoma = tested on: UACC-62 melanoma
SR leukemia = tested on: SR leukemia
NCI/ADR-RES ovarian = tested on: NCI/ADR-RES ovarian
UO-31 renal = tested on: UO-31 renal
A498 renal = tested on: A498 renal
SN12C renal = tested on: SN12C renal
SF-295 CNS = tested on: SF-295 CNS
OVCAR-5 ovarian = tested on: OVCAR-5 ovarian
HCT-15 colon = tested on: HCT-15 colon
OVCAR-4 ovarian = tested on: OVCAR-4 ovarian
EKVX NSCLC = tested on: EKVX NSCLC
COLO 205 colon = tested on: COLO 205 colon
HOP-92 NSCLC = tested on: HOP-92 NSCLC
MDA-N = tested on: MDA-N
OVCAR-8 ovarian = tested on: OVCAR-8 ovarian
LOX IMVI melanoma = tested on: LOX IMVI melanoma
786-0 renal = tested on: 786-0 renal
RPMI-8226 leukemia = tested on: RPMI-8226 leukemia
U251 CNS = tested on: U251 CNS
CAKI-1 renal = tested on: CAKI-1 renal
DU-145 prostate = tested on: DU-145 prostate
SK-MEL-2 melanoma = tested on: SK-MEL-2 melanoma
BT-549 breast = tested on: BT-549 breast
SNB-19 CNS = tested on: SNB-19 CNS
CCRF-CEM leukemia = tested on: CCRF-CEM leukemia
NCI-H226 lung = tested on: NCI-H226 lung
HS 578T breast = tested on: HS 578T breast
SW-620 colon = tested on: SW-620 colon
HCT-116 colon = tested on: HCT-116 colon
HT29 colon = tested on: HT29 colon
ACHN renal = tested on: ACHN renal
NCI-H522 lung = tested on: NCI-H522 lung
SNB-75 CNS = tested on: SNB-75 CNS
TK-10 renal = tested on: TK-10 renal
K-562 leukemia = tested on: K-562 leukemia
PC-3 prostate = tested on: PC-3 prostate

Measured: TGI

Cc1c(N2C(=O)/C(=C/c3ccc(N(CCC#N)CCC#N)cc3)N=C2c2ccccc2)c(=O)n(-c2ccccc2)n1C
> 100 µM: HOP-62 NSCLC | OVCAR-3 ovarian | SK-MEL-5 melanoma | MOLT-4 leukemia | KM12 colon | SK-OV-3 ovarian | NCI-H460 lung | MCF7 breast | IGROV1 ovarian | SF-539 CNS | M14 melanoma | MALME-3M melanoma | T-47D breast | UACC-257 melanoma | HCC-2998 colon | MDA-MB-435 | SF-268 CNS | HL-60(TB) leukemia | NCI-H23 lung | SK-MEL-28 melanoma | RXF 393 renal | MDA-MB-231 breast | A549 NSCLC | UACC-62 melanoma | SR leukemia | NCI/ADR-RES ovarian | UO-31 renal | A498 renal | SN12C renal | SF-295 CNS | OVCAR-5 ovarian | HCT-15 colon | OVCAR-4 ovarian | EKVX NSCLC | COLO 205 colon | HOP-92 NSCLC | MDA-N | OVCAR-8 ovarian | LOX IMVI melanoma | 786-0 renal | RPMI-8226 leukemia | U251 CNS | CAKI-1 renal | DU-145 prostate | SK-MEL-2 melanoma | BT-549 breast | SNB-19 CNS | CCRF-CEM leukemia | NCI-H226 lung | HS 578T breast | SW-620 colon | HCT-116 colon | HT29 colon

N#C/C(N)=C(\C#N)N=CNc1ccc(N)cc1
> 100 µM: HOP-62 NSCLC | OVCAR-3 ovarian | SK-MEL-5 melanoma | MOLT-4 leukemia | KM12 colon | SK-OV-3 ovarian | NCI-H460 lung | MCF7 breast | IGROV1 ovarian | ACHN renal | SF-539 CNS | M14 melanoma | NCI-H522 lung | MALME-3M melanoma | T-47D breast | UACC-257 melanoma | HCC-2998 colon | MDA-MB-435 | SF-268 CNS | HL-60(TB) leukemia | NCI-H23 lung | SK-MEL-28 melanoma | MDA-MB-231 breast | SNB-75 CNS | A549 NSCLC | TK-10 renal | UACC-62 melanoma | SR leukemia | K-562 leukemia | NCI/ADR-RES ovarian | UO-31 renal | A498 renal | SN12C renal | SF-295 CNS | OVCAR-5 ovarian | HCT-15 colon | OVCAR-4 ovarian | EKVX NSCLC | COLO 205 colon | MDA-N | OVCAR-8 ovarian | PC-3 prostate | LOX IMVI melanoma | 786-0 renal | RPMI-8226 leukemia | U251 CNS | CAKI-1 renal | DU-145 prostate | SK-MEL-2 melanoma | BT-549 breast | SNB-19 CNS | CCRF-CEM leukemia | NCI-H226 lung | HS 578T breast | SW-620 colon | HCT-116 colon | HT29 colon
